From patent publication US20220411380A1, “ACID ADDITION SALT OF RORy REGULATOR” (JIANGSU HENGRUI MEDICINE CO., LTD., priority 2019, published 2022)

Key:
RORγ LBD-GST tagged = biological target: T1, RORγ LBD-GST tagged (Homo sapiens, UniProt P51449); assay: LanthaScreen TR-FRET RORγ-LBD and co-activation peptide biochemical assay; settings: Fluorescein-D22 coactivator, read-out: RORγ coactivation assay (IC50)
T1 construct: RORγ LBD-GST tagged (Cat No. RORC-114H, Creative Biomart); purchased Creative Biomart RORC-114H
T1 sequence (P51449 269-508 limits assumed): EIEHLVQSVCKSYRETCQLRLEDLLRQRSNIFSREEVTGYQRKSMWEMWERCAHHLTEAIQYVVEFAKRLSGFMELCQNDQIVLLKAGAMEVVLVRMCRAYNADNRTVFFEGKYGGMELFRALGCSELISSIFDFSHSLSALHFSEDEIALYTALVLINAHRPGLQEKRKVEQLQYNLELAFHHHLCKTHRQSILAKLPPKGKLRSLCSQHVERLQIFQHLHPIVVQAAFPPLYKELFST
Method: Test Example 1. Biochemical Assay of LanthaScreen TR-FRET RORγ-LBD and Co-Activation Peptide
Complete TR-FRET Coregulator Buffer D was prepared by diluting 1 M DTT with TR-FRET Coregulator Buffer D to a final concentration of 5 mM DTT. The compounds were diluted in Complete TR-FRET Coregulator Buffer D. The solutions were serially 7-fold diluted from an initial concentration of 3 μM to the 7th concentration. 10 μL of the dilutions was added to each well of the 384-well plate. For negative and positive controls, 10 μL of Complete TR-FRET Coregulator Buffer D was added.
A RORγ LBD solution was prepared using Complete TR-FRET Coregulator Buffer D. The final concentration of the RORγ LBD solution in each reaction was 25 ng. Other than the negative wells receiving 5 μL of Complete TR-FRET Coregulator Buffer D, 5 μL of the RORγ LBD solution was added to the remaining wells of the 384-well assay plate.
Complete TR-FRET Coregulator Buffer D was used to prepare a solution containing 0.6 μM Fluorescein-D22 and 8 nM Tbanti-GST antibody, and 5 μL of the prepared solution was added to all wells of the 384-well assay plate. […]
The plate was measured on a Tecan Infinite M1000 plate reader at wavelengths of 520 nm and 495 nm. IC50 values were calculated using GraphPad Prism by plotting log compound concentration versus percentage inhibition.

[1] = tested on: IL-17A production in human peripheral blood mononuclear cells; assay: Inhibition of cytokine IL-17A production in human peripheral blood mononuclear cells; format: cell-based; settings: 72 h; human PBMC, cytostim, 3 days, IL-17A ELISA
Method: Test Example 2. Assay for Inhibiting Cytokine IL-17A Production in Human Peripheral Blood Mononuclear Cells
Frozen human peripheral blood mononuclear cells (PBMCs) were rapidly thawed in a pre-warmed lymphocyte medium and centrifuged at 1000 rpm for 10 min. The cell culture supernatant was discarded, and the cells were gently suspended in the TexMACS medium and counted. T cell activating reagent cytostim (10 μL/mL) was added to the cell suspension in certain proportions, and then the cells were seeded in a 96-well cell culture plate at a density of 1×10^5 PBMCs/well. Test compounds were diluted in gradient using TexMACS medium and added to the treatment wells in 2-3 replicates. Negative control wells containing cells only without cytostim were prepared to obtain background readings. The cell culture plate was incubated in a 5% carbon dioxide/37° C. incubator for 3 days. Cell culture supernatant was collected 3 days after treatment and centrifuged to remove the suspended matter. IL-17A in the supernatant was then quantified using an IL-17A enzyme-linked immunosorbent assay kit. […]
In the calculation equation, inhibition % is inhibition rate; OD(NC) is the reading of cells in negative control groups with no cytostim and no compound; OD(PC) is the reading of cells in positive control groups with cytostim but no compound; OD(compound) is the reading of cells with cytostim and compound.

[2] = Long-term/accelerated stability study of amorphous form of compound of formula II; format: physicochemical
Method: The amorphous form of the compound of formula II (Example 4) was subjected to a long-term (25° C., 60% RH)/accelerated (40° C., 75% RH) stability study with a period of 3 months.

[3] = as above; format: physicochemical; remark: listed apart in the source
[4] = Influencing factor study of amorphous form of compound of formula II; format: physicochemical
Method: A sample of the amorphous form of the compound of formula II (Example 4) was let stand open to examine the stability of the sample in conditions of heating (40° C. and 60° C.), illumination (4500 Lux) and high humidity (RH 75% and RH 90%) in a period of 30 days.

Compound: NC(=O)C[C@H](c1ccc(S(=O)(=O)CC2CC2)cc1)c1nc2cc(-c3ccccc3OC(F)F)c(Cl)cc2[nH]1 (single isomer, unassigned) [compound of formula II]
- IC50 (RORγ LBD-GST tagged): 0.013 µM
- IC50 [1]: 0.01 µM

Compound: NC(=O)C[C@H](c1ccc(S(=O)(=O)CC2CC2)cc1)c1nc2cc(-c3ccccc3OC(F)F)c(Cl)cc2[nH]1 [amorphous form of compound of formula II]
- Stability (conclusion of long-term/accelerated study) ([2]; 25° C., 60% RH and 40° C., 75% RH, 3 months): good chemical stability
- Chiral purity Initial ([2]; 25° C., 60% RH, Initial): 99.2
- Purity Initial ([2]; 25° C., 60% RH, Initial): 99.87
- Purity (%) Month 1 ([2]; 25° C., 60% RH): 99.86%
- Purity (%) Month 2 ([2]; 25° C., 60% RH, Month 2): 99.86%
- Chiral purity Initial ([2]; 40° C., 75% RH, Initial): 99.2
- Purity (%) Month 1 ([2]; 40° C., 75% RH): 99.87%
- Chiral purity (%) Month 3 ([2]; 40° C., 75% RH, Month 3): 99.1%
- Purity (%) Month 3 ([2]; 40° C., 75% RH, Month 3): 99.88%
- Chiral purity Initial ([3]; 5° C., Initial): 99.2
- Purity Initial ([3]; 5° C., Initial): 99.87
- Purity (%) Month 1 ([3]; 5° C., Month 1): 99.86%
- Purity (%) Month 2 ([3]; 5° C.): 99.86%
- Chiral purity (%) Month 3 ([3]; 5° C.): 99.1%
- Purity (%) Month 3 ([3]; 5° C.): 99.85%
- Chiral purity (%) Month 3 ([3]; 25° C., 60% RH): 99.2%
- Purity (%) Month 3 ([3]; 25° C., 60% RH): 99.85%
- Purity Initial ([3]; 40° C., 75% RH, Initial): 99.87
- Purity (%) Month 2 ([3]; 40° C., 75% RH): 99.86%
- Amorphous form Purity (%) ([4]; 40° C., 5 days): 99.93%
- Color and appearance ([4]; 40° C., 5 days): White solid
- Amorphous form Purity (%) ([4]; 40° C., 10 days): 99.90%
- Chiral purity ([4]; 40° C., 10 days): 99.4
- Color and appearance ([4]; 40° C., 10 days): White solid
- Amorphous form Purity (%) ([4]; 40° C., 30 days): 99.92%
- Chiral purity ([4]; 40° C., 30 days): 99.5
- Color and appearance ([4]; 40° C., 30 days): White solid
- Amorphous form Purity (%) ([4]; 60° C., 5 days): 99.95%
- Color and appearance ([4]; 60° C., 5 days): White solid
- Amorphous form Purity (%) ([4]; 60° C., 10 days): 99.95%
- Chiral purity ([4]; 60° C., 10 days): 99.4
- Color and appearance ([4]; 60° C., 10 days): White solid
- Amorphous form Purity (%) ([4]; 60° C., 30 days): 99.95%
- Chiral purity ([4]; 60° C., 30 days): 99.4
- Color and appearance ([4]; 60° C., 30 days): White solid
- Amorphous form Purity (%) ([4]; 4500 Lux, 5 days): 99.91%
- Color and appearance ([4]; 4500 Lux, 5 days): White solid
- Amorphous form Purity (%) ([4]; 4500 Lux, 10 days): 99.91%
- Chiral purity ([4]; 4500 Lux, 10 days): 99.3
- Color and appearance ([4]; 4500 Lux, 10 days): White solid
- Amorphous form Purity (%) ([4]; 4500 Lux, 30 days): 99.93%
- Chiral purity ([4]; 4500 Lux, 30 days): 99.3
- Color and appearance ([4]; 4500 Lux, 30 days): White solid
- Stability (conclusion of influencing factor study) ([4]; 30 days, illumination, 40° C., 60° C., high humidity of 75% and 90%): good chemical stability
- Amorphous form Purity (%) ([4]; Initial, 0 days): 99.91%
- Chiral purity ([4]; Initial, 0 days): 99.4
- Color and appearance ([4]; Initial, 0 days): White solid
- Amorphous form Purity (%) ([4]; RH 75%, 5 days): 99.92%
- Color and appearance ([4]; RH 75%, 5 days): White solid
- Weight gain (%) ([4]; RH 75%, 5 days): 10.42%
- Amorphous form Purity (%) ([4]; RH 75%, 10 days): 99.90%
- Chiral purity ([4]; RH 75%, 10 days): 99.3
- Color and appearance ([4]; RH 75%, 10 days): White solid
- Weight gain (%) ([4]; RH 75%, 10 days): 13.2%
- Amorphous form Purity (%) ([4]; RH 75%, 30 days): 99.90%
- Chiral purity ([4]; RH 75%, 30 days): 99.4
- Color and appearance ([4]; RH 75%, 30 days): White solid
- Weight gain (%) ([4]; RH 75%, 30 days): 23.24%
- Amorphous form Purity (%) ([4]; RH 90%, 5 days): 99.91%
- Color and appearance ([4]; RH 90%, 5 days): White solid
- Weight gain (%) ([4]; RH 90%, 5 days): 21.67%
- Amorphous form Purity (%) ([4]; RH 90%, 10 days): 99.92%
- Chiral purity ([4]; RH 90%, 10 days): 99.4
- Color and appearance ([4]; RH 90%, 10 days): White solid
- Weight gain (%) ([4]; RH 90%, 10 days): 26.49%
- Amorphous form Purity (%) ([4]; RH 90%, 30 days): 99.89%
- Chiral purity ([4]; RH 90%, 30 days): 99.4
- Color and appearance ([4]; RH 90%, 30 days): White solid
- Weight gain (%) ([4]; RH 90%, 30 days): 37.24%
